The target of the assay is Acetylcholinesterase (Homo sapiens) (UniProt P22303). Nature of the assay: Inhibition of AchE at 100 uM after 30 mins by Ellman's method.

The record followed here is ChEMBL document CHEMBL1221406, “Germacrane-type sesquiterpenoids from the roots of Valeriana officinalis var. latifolia” (J Nat Prod, 2010).

SMILES strings stand for the structures. Active and inactive are the calls of the source. No cut-off for these calls is given here.

Acetylcholinesterase (Homo sapiens), sequence (P22303 whole entry): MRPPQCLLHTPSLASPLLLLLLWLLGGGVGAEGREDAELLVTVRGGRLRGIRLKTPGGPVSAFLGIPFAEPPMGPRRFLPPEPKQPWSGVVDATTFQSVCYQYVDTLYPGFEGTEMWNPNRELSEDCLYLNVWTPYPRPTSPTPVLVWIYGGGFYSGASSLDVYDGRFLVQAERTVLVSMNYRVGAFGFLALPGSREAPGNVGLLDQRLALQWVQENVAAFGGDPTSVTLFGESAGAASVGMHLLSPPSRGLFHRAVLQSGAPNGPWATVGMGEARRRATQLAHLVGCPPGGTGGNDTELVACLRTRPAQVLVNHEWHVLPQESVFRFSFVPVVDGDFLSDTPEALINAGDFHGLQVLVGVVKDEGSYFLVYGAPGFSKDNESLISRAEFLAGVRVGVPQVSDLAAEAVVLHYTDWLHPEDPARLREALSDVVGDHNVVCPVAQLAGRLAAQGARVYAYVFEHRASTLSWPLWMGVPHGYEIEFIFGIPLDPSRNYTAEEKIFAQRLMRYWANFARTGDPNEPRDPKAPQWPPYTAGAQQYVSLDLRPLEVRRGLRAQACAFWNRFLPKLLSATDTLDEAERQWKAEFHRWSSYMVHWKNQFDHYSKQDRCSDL

Regarding `C=C1CC[C@H]2[C@@H](/C=C(\C(=O)O)CC[C@@H]1O)C2(C)C`, the inhibition entry was “inactive”.
The entry for `C/C1=C\CC/C(C(=O)O)=C/[C@@H]2[C@H](CC1)C2(C)C` is “inactive”; for `C/C1=C\CC/C(C=O)=C\[C@H]2[C@@H](C[C@H]1O)C2(C)C` it is “inactive”.
To `CC(=O)O[C@H]1C[C@@]2(C)O[C@@H]2CC/C(C=O)=C\[C@H]2[C@@H]1C2(C)C` belongs “inactive”; to `CC(=O)OC/C1=C\CC/C(C=O)=C\[C@@H]2[C@@H](CC1)C2(C)C`, “inactive”; to `CC(=O)OC[C@@]12CC[C@@H]3[C@H](/C=C(/C=O)CC[C@H]1O2)C3(C)C`, “inactive”.
As to `CC(=O)O[C@H]1C/C(C)=C/CC/C(C(=O)O)=C/[C@@H]2[C@H]1C2(C)C`, the inhibition result is “inactive”.
With `CC1(C)[C@@H]2CC[C@@]3(C=O)O[C@@H]3CC/C(C=O)=C\[C@@H]21`, the inhibition result was “inactive”.
To `CC1(C)[C@@H]2CC[C@@]3(C)O[C@@H]3CC/C(C=O)=C\[C@@H]21` belongs 25.9%.
